# Assays:
# [1] = tested on: invF′-lacZ fusion (S. typhi strain Ty272); test: β-galactosidase activity of the invF′-lacZ fusion in favourable LB medium; assay type: cell-based
# Experimental: (§1) The favourable LB medium (high osmolarity and concentration of Ca^2+ions) was defined as being the standard LB medium modified so as to have a final NaCl concentration of 300 mM and a final Ca concentration of 5 mM.
# (§2) Each of the strains described above was cultured at 37° C. on agar or in TCS broth. The P-galactosidase activity was determined using 4-methyl-umbelliferyl-p-D-galactopyranoside sold by the company Sigma, according to the technique of Klarsfeld et al. (Mol. Mibrobiol., 1994, 13, 585-597). The results, expressed in P-galactosidase units (fluorescence per hour and per OD600), represent the mean of the values obtained in at least three independent experiments. The standard deviations were less than 10% of the values presented.
# (§3) For this, the S. typhi strains Ty267, Ty272 and Ty277, which carry the iagA′-lacZ, invF′-lacZ and sipB′-lacZ fusions, respectively, (see Table I), were cultured in the favourable LB or unfavourable LB medium.
# (§4) The action of these two compounds on the expression of the iagA′-lacZ, invF′-lacZ and sipB′-lacZ fusions was studied by measuring the β-galactosidase activity expressed by these fusions as a function of the time of culturing (samples removed every two hours).
# [2] = tested on: sipB′-lacZ fusion (S. typhi strain Ty277); test: β-galactosidase activity of the sipB′-lacZ fusion in favourable LB medium; assay type: cell-based
# Experimental: as §1, §2, §3, §4
# [3] = tested on: S. typhimurium C52; test: Splenic colonization of C57Bl/6 mice infected orally with S. typhimurium C52; assay type: in vivo
# Experimental: The 5-6-week-old female C57Bl/6 mice used in the context of this experiment originated from the IFFA-CREDO breeding centre (LArbresle, France).
# (§5) They were infected orally in the following way. The Salmonella strains were cultured in TCS broth for 18 hours at 37° C. with shaking (200 rpm). This culture was then adjusted to […] (in the stationary growth phase, 1 OD600 =1.5 ×10^9 bacteria/ml), and then the number of viable bacteria was controlled by counting on TCS agar.
# (§6) On the day of infection (DO), the drinking-water bottles of the mice were replaced with bottles containing 100 ml of drinking water to which the required number of bacteria had been added.
# (§7) After infection for 24 hours ([…]), the bottles containing the contaminated drinking water were replaced with bottles containing uncontaminated drinking water.
# (§8) Seven days after infection (D+7), the spleens of the mice infected in this way were removed and homogenized separately in 1 ml of physiological saline containing 0.7% of NaCl.
# (§9) The number of viable bacteria per spleen was determined by plating out dilutions of the homogenate, onto TCS agar.
# The effect of the composition of the drinking water on the splenic colonization by Salmonella was estimated using the Student's t test.
# The S. typhimurium strain C52 was used to infect C57Bl/6 mice orally.
# On this figure, the number of viable bacteria is given as the mean (log10) of the values ± the standard deviation. […]
# [4] = tested on: S. enteritidis LA5; test: Splenic colonization of C57Bl/6 mice infected orally with S. enteritidis LA5; assay type: in vivo; conditions: 50 mM in drinking water pH 7.2-7.3; 10^7 bacteria per animal orally; distilled water 7.5 ± 0.3
# Experimental: as §5, §6, §7, §8, §9
# The S. dublin strain 5917 (Coynault & Norel, Microb. Pathog., 1999, 26, 299-305) and S. enteritidis strain LAS (Thorns et al., Microb. Pathog., 1996, 20, 235-246) were used to infect C57B1/6 mice orally at the dose of 10^7 bacteria per animal.
# [5] = tested on: Salmonellae; test: Bactericidal or bacteriostatic effect on the Salmonellae at neutral pH; assay type: cell-based, Salmonella
# [6] = tested on: Gram-positive or Gram-negative microorganisms; conditions: acid pH (free acid form); cited from earlier work
# [7] = concentration greater than or equal to 2.5 mM, favourable LB medium
compound,measurement,setting,value
CCCCCCCC(=O)[O-].[Na+] [sodium caprylate],β-galactosidase activity expressed by the invF′-lacZ fusion as % of that in favourable LB medium without the substance,[1]; 1 mM in favourable LB medium,~20%
same,expression of the invF gene (invF′-lacZ fusion),[1]; [7],very strongly represses
same,β-galactosidase activity expressed by the sipB′-lacZ fusion as % of that in favourable LB medium without the substance,[2]; 1 mM in favourable LB medium,~20%
same,expression of the sipB gene (sipB′-lacZ fusion),[2]; [7],very strongly represses
same,Number of viable bacteria in the spleen (mean log10),"[3]; 5 mM in drinking water, infectious dose 5 × 10^7 bacteria",6.9 ± 0.5 log10
same,Number of viable bacteria in the spleen (mean log10),"[3]; 5 mM in drinking water, infectious dose 10^7 bacteria",6.8 ± 0.2 log10
same,Number of viable bacteria in the spleen (mean log10),"[3]; 10 mM in drinking water, infectious dose 5 × 10^7 bacteria",6.5 ± 0.4 log10
same,Number of viable bacteria in the spleen (mean log10),"[3]; 10 mM in drinking water, infectious dose 10^7 bacteria",6.5 ± 1.4 log10
same,factor of decrease of the bacterial load in the spleen,"[3]; 50 mM in drinking water from two days before infection, 5 × 10^7 bacteria, seventh day of infection",approximately 1 000
same,Number of viable bacteria in the spleen (mean log10),"[3]; 50 mM in drinking water, infectious dose 10^7 bacteria, distilled water 7.2 ± 0.3",2.3 ± 0.4 log10
same,protective effect (in words),"[3]; 5 or 10 mM in the drinking water, whatever the infectious dose",no longer has a significant protective effect
same,Number of viable bacteria in the spleen (mean in log10),[4],3.7 ± 0.4 log10
same,bactericidal or bacteriostatic effect on the Salmonellae,[5],none of these compounds has any significant bactericidal or bacteriostatic effect
same,bactericidal activity on a great variety of Gram-positive or Gram-negative microorganisms,[6],bactericidal activity
